Where a SMILES comes first, the peptide text is derived from it.
Tests used:
Growth Hormone secretion [1] = test: Growth Hormone secretion in female rats after subcutaneous GRF analog; format: in vivo; conditions: female Sprague-Dawley rats; 10 μg/rat subcutaneous; plasma 0-60 minutes
In short: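 Female Sprague-Dawley rats (250–300 g), isoflurane-anaesthetised with carotid cannula, got GRF analog 10 μg/rat s.c. in 20 mM AcONa + 5% mannitol, pH 5. Blood was drawn at 0, 10, 20, 30, 45 and 60 min (4–8 rats per group per time point). Plasma GH was measured by rat/mouse GH ELISA on 20-fold diluted samples.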

human GRF receptor = biological target: T1, human GRF receptor (Homo sapiens, UniProt Q02643); test: Alkaline phosphatase (AP) assay, GHRHr agonist activity; format: cell-based; conditions: BHK cells stably expressing human GRF receptor and alkaline phosphatase reporter gene; 24 hrs stimulation; read-out: EC50 (nM) as assessed by alkaline phosphatase (AP) induction
T1 construct: expressed in transfected cells; host or cells: baby hamster kidney (BHK) cells, stably transfected
T1 sequence (Q02643 23-423): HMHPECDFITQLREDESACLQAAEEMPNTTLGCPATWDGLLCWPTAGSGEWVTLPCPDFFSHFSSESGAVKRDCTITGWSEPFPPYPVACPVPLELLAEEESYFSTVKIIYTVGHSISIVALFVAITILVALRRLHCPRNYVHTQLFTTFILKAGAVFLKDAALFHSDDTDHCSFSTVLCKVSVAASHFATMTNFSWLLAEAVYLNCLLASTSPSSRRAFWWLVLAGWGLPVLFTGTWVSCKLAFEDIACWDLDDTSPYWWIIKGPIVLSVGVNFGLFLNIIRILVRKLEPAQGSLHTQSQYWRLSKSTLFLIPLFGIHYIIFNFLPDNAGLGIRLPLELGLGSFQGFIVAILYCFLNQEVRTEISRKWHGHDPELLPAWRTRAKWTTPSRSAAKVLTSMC
Procedure: The activity of representative GRF peptides was tested on baby hamster kidney (BHK) cells stably transfected to express the human GRF receptor and an alkaline phosphatase reporter gene. Cells were cultured 24 hours before stimulation, in 96-well plates, at a concentration of 0.5×10^5 cells/well. Before stimulation, cells were washed twice with DPBS and incubated 10-30 min in assay buffer (DMEM without phenol red supplemented with 20 mM HEPES and 1% heat inactivated fetal bovine serum (FBS). The dose response curve of the GRF peptides was done for 24 hrs with concentrations of peptides from 10^−5 M to 10^−11 M. Supernatant was collected and analysis of alkaline phosphatase levels was performed using the Alkaline Phosphatase detection kit from Applied Biosystems.
The in vitro activity of representative GRF analogs was tested on baby hamster kidney (BHK) cells expressing human GHRHr.

Growth Hormone secretion [2] = test: Growth Hormone secretion in female mice after subcutaneous GRF analog; format: in vivo; conditions: female CD-1 mice; 10 μg/mouse subcutaneous; plasma 10 minutes after injection
In short: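 Female CD-1 mice (20–25 g) got a subcutaneous dose of 10 μg/mouse GRF analog in 20 mM sodium acetate + 5% mannitol, pH 5. Plasma was taken by cardiac puncture 10 min after dosing into K3EDTA. GH was measured by rat/mouse GH ELISA on 20-fold diluted plasma.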

[3] = following intravenous injection in humans; cited from earlier work

EC50 (human GRF receptor) [nM]	Molecule	Mean AUC (GH Area Under the curve, GH concentration over time) (Growth Hormone secretion [1])	Mean Cmax (ng/ml) of Growth Hormone secretion (Growth Hormone secretion [1]) [ng/mL]	GH levels 10 min (Growth Hormone secretion [2]) [ng/mL]	half-life [3]
0.11	CC[C@H](C)[C@H](NC(=O)[C@H](C)NC(=O)[C@H](CC(=O)O)NC(=O)[C@@H](C)NC(=O)[C@@H](N)Cc1ccc(O)cc1)C(=O)N[C@@H](Cc1ccccc1)C(=O)N[C@H](C(=O)N[C@@H](CC(=O)O)C(=O)N[C@@H](CO)C(=O)N[C@@H](Cc1ccc(O)cc1)C(=O)N[C@@H](CCCNC(=N)N)C(=O)N[C@@H](CCCCN)C(=O)N[C@H](C(=O)N[C@@H](CC(C)C)C(=O)N[C@@H](C)C(=O)N[C@@H](CCC(N)=O)C(=O)N[C@@H](CC(C)C)C(=O)N[C@@H](CCCCN)C(=O)N[C@@H](C)C(=O)N[C@@H](CCCNC(=N)N)C(=O)N[C@@H](CCC(N)=O)C(=O)N[C@@H](CC(=O)O)C(=O)N[C@H](C(=O)N[C@@H](CC(C)C)C(=O)N[C@@H](C)C(=O)N[C@@H](CCCNC(=N)N)C(=O)N[C@@H](C)C(=O)N[C@@H](C)C(=O)N[C@@H](CCCNC(=N)N)C(=O)N[C@@H](C)C(=O)N[C@@H](C)C(=O)N[C@@H](CCCNC(=N)N)C(N)=O)[C@@H](C)CC)C(C)C)[C@@H](C)O [SEQ ID NO: 28, Y-a-DAIFTDSYRKVLAQLKARQDILARAARAAR-NH2] (HELM PEPTIDE1{Y.[dA].D.A.I.F.T.D.S.Y.R.K.V.L.A.Q.L.K.A.R.Q.D.I.L.A.R.A.A.R.A.A.R.[am]}$$$$V2.0)	17633	806.2	449.7	
0.11	CC/C=C/CC(=O)N[C@@H](Cc1ccc(O)cc1)C(=O)N[C@@H](C)C(=O)N[C@@H](CC(=O)O)C(=O)N[C@@H](C)C(=O)N[C@H](C(=O)N[C@@H](Cc1ccccc1)C(=O)N[C@H](C(=O)N[C@@H](CC(=O)O)C(=O)N[C@@H](CO)C(=O)N[C@@H](Cc1ccc(O)cc1)C(=O)N[C@@H](CCCNC(=N)N)C(=O)N[C@@H](CCCCN)C(=O)N[C@H](C(=O)N[C@@H](CC(C)C)C(=O)N[C@@H](C)C(=O)N[C@@H](CCC(N)=O)C(=O)N[C@@H](CC(C)C)C(=O)N[C@@H](CCCCN)C(=O)N[C@@H](C)C(=O)N[C@@H](CCCNC(=N)N)C(=O)N[C@@H](CCC(N)=O)C(=O)N[C@@H](CC(=O)O)C(=O)N[C@@H](CC(C)C)C(=O)N[C@@H](CC(C)C)C(=O)N[C@@H](C)C(=O)N[C@@H](CCCNC(=N)N)C(=O)N[C@@H](C)C(=O)N[C@@H](C)C(=O)N[C@@H](CCCNC(=N)N)C(=O)N[C@@H](C)C(=O)N[C@@H](C)C(=O)N[C@@H](CCCNC(=N)N)C(N)=O)C(C)C)[C@@H](C)O)[C@@H](C)CC [SEQ ID NO: 32, Trans-3-hexenoyl-YADAIFTDSYRKVLAQLKARQDLLARAARAAR-NH2] (HELM PEPTIDE1{[CC/C=C/CC(=O)[*:2]].Y.A.D.A.I.F.T.D.S.Y.R.K.V.L.A.Q.L.K.A.R.Q.D.L.L.A.R.A.A.R.A.A.R.[am]}$$$$V2.0)	10500	514.8	401.6	
0.25	Ac-YADAIFTDSYRKVLAQLSARKLLQDILSR-NH2 [SEQ ID NO: 43, Ac-YADAIFTDSYRKVLAQLSARKLLQDILSR-NH2, reference compound]	2128	83.6	277	
	Tyr-Ala-Asp-Ala-Ile-Phe-Thr-Asn-Ser-Tyr-Arg-Lys-Val-Leu-Gly-Gln-Leu-Ser-Ala-Arg-Lys-Leu-Leu-Gln-Asp-Ile-Met-Ser-Arg [hGRF(1-29)]				approximately 12 min
0.2	CC[C@H](C)[C@H](NC(=O)[C@H](C)NC(=O)[C@H](CC(=O)O)NC(=O)[C@@H](C)NC(=O)[C@@H](N)Cc1ccc(O)cc1)C(=O)N[C@@H](Cc1ccccc1)C(=O)N[C@H](C(=O)N[C@@H](CC(=O)O)C(=O)N[C@@H](CO)C(=O)N[C@@H](Cc1ccc(O)cc1)C(=O)N[C@@H](CCCNC(=N)N)C(=O)N[C@@H](CCCCN)C(=O)N[C@H](C(=O)N[C@@H](CC(C)C)C(=O)N[C@@H](C)C(=O)N[C@@H](CCC(N)=O)C(=O)N[C@@H](CC(C)C)C(=O)N[C@@H](CCCCN)C(=O)N[C@@H](C)C(=O)N[C@@H](CCCNC(=N)N)C(=O)N[C@@H](CCC(N)=O)C(=O)N[C@@H](CC(=O)O)C(=O)N[C@H](C(=O)N[C@@H](CC(C)C)C(=O)N[C@@H](C)C(=O)N[C@@H](CCCNC(=N)N)C(=O)N[C@@H](C)C(=O)N[C@@H](C)C(=O)N[C@@H](CCCNC(=N)N)C(=O)N[C@@H](C)C(=O)N[C@@H](C)C(=O)N[C@@H](CCCNC(=N)N)C(=O)N[C@@H](CCO)C(N)=O)[C@@H](C)CC)C(C)C)[C@@H](C)O [SEQ ID NO: 37, Y-a-DAIFTDSYRKVLAQLKARQDILARAARAAR-HoSer-NH2] (HELM PEPTIDE1{Y.[dA].D.A.I.F.T.D.S.Y.R.K.V.L.A.Q.L.K.A.R.Q.D.I.L.A.R.A.A.R.A.A.R.[O=C([C@H](CCO)N[*:1])[*:2]].[am]}$$$$V2.0)	14757	594.6		
